From patent publication US6849442B1, “Biosensor materials and methods” (Cambridge University Technical Services Limited, priority 1997, dated 2005)

How the values were obtained:
[1] = tested on: R. corallina cells; settings: for ring cleavage dioxygenase pathway induced (meta / ortho): crude enzyme extracts of cells grown on MMRN supplemented with the xenobiotic; for induction of catechol 2,3-dioxygenase activity: R. corallina, meta pathway marker
Method: (§1) “MMRN” is prepared as a multicomponent stock to avoid the production of uncharacterised compounds during autoclaving. A “basic salts” stock is prepared containing 6 g/L Na2HPO4; 3 g/L KH2PO4; 1 g/L NaCl; 4 g/L (NH4)2SO4; adjusted to pH 7.4 and made up to 989 mls with distilled water and autoclaved. A “100×A salts” solution is prepared consisting of 20 g/L MgSO4; 2000 mg/L FeSO4.7H2O; 200 mg/L FeCl3; 200 mg/L MnSO4.H2O is prepared in distilled water and autoclaved. A “1000×B salts” solution consisting of 500 mg/L ZnSO4.7H2O; 200 mg/L CuCl2·2H2O; 200 mg/L Na2B4O7.10H2O; 100 mg/L (NH4)7Mo6O24.4H2O is prepared in distilled water and autoclaved. To prepare 1 litre of MMRN, sterile solutions of 989 mls basic salts, 10 mls 100×A salts, 1 ml 1000×B salts are combined. For solid media, agar is added to 1.4% w/v. Carbon-energy sources are supplemented to 80 μM final concentrations for soluble molecules, or as vapour for insoluble molecules (where their concentration is decided by their individual partition coefficients generally ranging from 3 to 40 μM). Petri plates or liquid cultures are incubated at 28° C. to 30° C. for up to 72 hours to accumulate sufficient biomass for genetic and biochemical testing.

[2] = tested on: R. corallina; assay: Genetic induction of the toluene degradative pathway, substrate supplied as vapour; format: cell-based, Rhodococcus corallina; settings: level in water
Method: as §1

[3] = tested on: R. corallina; assay: Growth-inducing substrate test on MMRN; format: cell-based, Rhodococcus corallina
Excerpt: Mycolic acid-containing bacteria may then be screened for specific hydrocarbon-inducible catabolic pathways using MMRN supplemented with the target xenobiotic pollutant. Strains for which the target molecule is growth inducing may then be isolated and used to as a source of genetic regulatory elements for biosensors or as specific biocatalytic functions. Using this protocol mycolic acid containing bacteria have been and may be rapidly identified with novel and useful catabolic properties. This approach is also useful for identification and isolation of mycolic acid containing bacteria with biocatalytic properties.

Row | Compound | ring cleavage dioxygenase pathway induced (meta / ortho) [1] | induction of catechol 2,3-dioxygenase activity [1] | level at which genetic induction of the toluene degradative pathway occurs [2] | acts as growth inducing substrate [3]
1 | Oc1ccccc1 [phenol] | exclusively induces the ortho pathway | – | – | –
2 | O=C(O)c1ccccc1 [benzoate] | exclusively induces the ortho pathway | not | – | –
3 | Cc1ccccc1 [toluene] | induced the meta pathway | induced | less than 200 ppm | –
4 | xylene | – | – | – | does not act as a growth inducing substrate
